Experimental findings from ChEMBL document CHEMBL1146664, “Cytochrome P450/NADPH-dependent formation of trans epoxides from trans-arachidonic acids” (Bioorg Med Chem Lett, 2004) are described below.

This data set is described as follows: Level reaching in blood plasma of rat or human was determined. It counts as ADME, cell-free.
Compound `CCCCC/C=C/CC1OC1C/C=C\C/C=C\CCCC(=O)O` (stereo not given) showed an Activity of 0.5 µM. The value for `CCCCCC(O)C(O)C/C=C\C/C=C\C/C=C\CCCC(=O)O` (stereo not given) was 0.5 µM; that for `CCCCC/C=C/C/C=C\C/C=C\C/C=C\CCCC(=O)O` was 0.5 µM; that for `CCCCCC1OC1C/C=C\C/C=C\C/C=C\CCCC(=O)O` (trans isomer) was 0.5 µM. `CCCCC/C=C/CC(O)C(O)C/C=C\C/C=C\CCCC(=O)O` (trans isomer) gave an Activity of 0.5 µM.
